Data reported in PubChem BioAssay (NCI).
Values joined by “and” are separate entries in the source; they are usually repeats but may differ in a detail not shown here. Equal entries are not always repeated.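 Grown in 96-well plates, cells were treated for 48 hours with each compound at five concentrations. Insufficient inhibition: endpoint recorded as highest concentration tested. GI50 is the concentration that inhibits growth by half. The concentration for full growth arrest is given as TGI.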 *1 amine or outer side, *2 acyl side, *3 side chain or, on linkers, in order; H or OH if unused. Where a SMILES comes first, the peptide text is derived from it. [ ]: non-standard residue; d: D form. X32 = C[C@H](N[*:1])C(=O)C(C)(C)C(=O)[*:2]; Hmpa(2S,3S) = CC[C@H](C)[C@H](O)C(=O)O; NMeY = CN[C@@H](Cc1ccc(O)cc1)C(=O)O; NMeL = CN[C@@H](CC(C)C)C(=O)O; NMeV = CN[C@H](C(=O)O)C(C)C; βAla = NCCC(=O)O

Key:
Assay in all cases: growth of human tumour cells (NCI), 48 h
A498 renal = tested on: A498 renal
CAKI-1 renal = tested on: CAKI-1 renal
HCT-15 colon = tested on: HCT-15 colon
M14 melanoma = tested on: M14 melanoma
MOLT-4 leukemia = tested on: MOLT-4 leukemia
NCI-H226 lung = tested on: NCI-H226 lung
RXF 393 renal = tested on: RXF 393 renal
SF-268 CNS = tested on: SF-268 CNS
SK-MEL-2 melanoma = tested on: SK-MEL-2 melanoma
SK-MEL-5 melanoma = tested on: SK-MEL-5 melanoma
U251 CNS = tested on: U251 CNS

CCCCCCCCCCCCC(O)[C@H]1CC[C@H](C(O)CCCCCC(=O)CCCCC2CC(C(C)=O)C(=O)O2)O1 (stereo partly specified)
GI50 (A498 renal): 2.62 µM
TGI (A498 renal): 36.6 µM
TGI (CAKI-1 renal): 50.3 µM
GI50 (HCT-15 colon): 6.51 µM
TGI (HCT-15 colon): > 70.9 µM
GI50 (M14 melanoma): 6.01 µM
TGI (M14 melanoma): 26.2 µM
GI50 (MOLT-4 leukemia): 2.81 µM and 2.14 µM
TGI (MOLT-4 leukemia): 23.4 µM
GI50 (NCI-H226 lung): 3.48 µM
TGI (NCI-H226 lung): 46.1 µM
TGI (RXF 393 renal): 22.2 µM
GI50 (SF-268 CNS): 3.43 µM
TGI (SF-268 CNS): 53.4 µM
TGI (SK-MEL-2 melanoma): 28.3 µM
GI50 (SK-MEL-5 melanoma): 1.11 µM
TGI (SK-MEL-5 melanoma): 4.97 µM and 20.4 µM
GI50 (U251 CNS): 3.99 µM
TGI (U251 CNS): > 62.5 µM

O=C1C(c2c(O)[nH]c3ccc(Br)cc23)=Nc2ccccc21
TGI (A498 renal): 14.1 µM
TGI (CAKI-1 renal): 38.8 µM
TGI (HCT-15 colon): > 100 µM
TGI (M14 melanoma): 32.4 µM
TGI (MOLT-4 leukemia): > 100 µM
TGI (NCI-H226 lung): 34.3 µM
TGI (RXF 393 renal): 6.47 µM
TGI (SF-268 CNS): 24.4 µM
TGI (SK-MEL-2 melanoma): 28.3 µM
TGI (SK-MEL-5 melanoma): 18.6 µM
TGI (U251 CNS): 26.2 µM

OCCNCNc1nc(NCNCCO)nc(N(CNCCO)CNCCO)n1
TGI (A498 renal): 62 µM
TGI (CAKI-1 renal): 57.7 µM
TGI (HCT-15 colon): 61.6 µM
TGI (M14 melanoma): 36.6 µM
TGI (MOLT-4 leukemia): 67.7 µM
TGI (NCI-H226 lung): 47.1 µM
TGI (RXF 393 renal): 31.1 µM
TGI (SF-268 CNS): 60.8 µM
TGI (SK-MEL-2 melanoma): 40.9 µM
TGI (SK-MEL-5 melanoma): 28.5 µM
TGI (U251 CNS): 43.7 µM

N#C/C(N)=C(\C#N)NC(=O)C(=O)N/C(C#N)=C(\N)C#N
TGI (A498 renal): > 100 µM
TGI (CAKI-1 renal): > 100 µM
TGI (HCT-15 colon): > 100 µM
TGI (M14 melanoma): > 100 µM
TGI (MOLT-4 leukemia): > 100 µM
TGI (NCI-H226 lung): > 100 µM
TGI (RXF 393 renal): > 100 µM
TGI (SF-268 CNS): > 100 µM
TGI (SK-MEL-2 melanoma): > 100 µM
TGI (SK-MEL-5 melanoma): > 100 µM
TGI (U251 CNS): > 100 µM

N[C@H]1CCCC[C@@H]1N1C(=O)c2ccccc2C1(O)c1ccc(Cl)cc1 (stereo partly specified)
TGI (A498 renal): 28.1 µM
TGI (CAKI-1 renal): 20.7 µM
TGI (HCT-15 colon): 26.7 µM
TGI (M14 melanoma): 23.6 µM
TGI (MOLT-4 leukemia): 19.2 µM
TGI (NCI-H226 lung): 31.3 µM
TGI (RXF 393 renal): 20.4 µM
TGI (SF-268 CNS): 27.5 µM
TGI (SK-MEL-2 melanoma): 30.6 µM
TGI (SK-MEL-5 melanoma): 22.5 µM
TGI (U251 CNS): 26.6 µM

CCOC(=O)CCC(NC(=O)c1ccc(OCc2ccc3nc(-c4ccccc4)c(Cl)nc3c2)cc1)C(=O)OCC (stereo unspecified)
TGI (A498 renal): 77.4 µM
TGI (CAKI-1 renal): > 100 µM
TGI (HCT-15 colon): > 31.6 µM
TGI (M14 melanoma): > 31.6 µM
TGI (MOLT-4 leukemia): > 31.6 µM
TGI (NCI-H226 lung): 68.8 µM
TGI (RXF 393 renal): 8.6 µM
TGI (SF-268 CNS): 28.1 µM
TGI (SK-MEL-2 melanoma): > 100 µM
TGI (SK-MEL-5 melanoma): > 31.6 µM
TGI (U251 CNS): > 31.6 µM

CCCCCCCCCCCCCCCCCCN(C)CC(COP(=O)([O-])OCC[N+](C)(C)C)OC (stereo unspecified)
TGI (A498 renal): 39.3 µM
TGI (CAKI-1 renal): 20.9 µM
TGI (HCT-15 colon): 23.5 µM
TGI (M14 melanoma): 29.6 µM
TGI (MOLT-4 leukemia): 11.3 µM
TGI (NCI-H226 lung): 42.4 µM
TGI (RXF 393 renal): 8.55 µM
TGI (SF-268 CNS): 27.5 µM
TGI (SK-MEL-2 melanoma): 53.7 µM
TGI (SK-MEL-5 melanoma): 43.8 µM
TGI (U251 CNS): 10.1 µM

O=[N+]([O-])c1cc(-c2nc(-c3ccccc3)c(-c3ccccc3)[nH]2)c(O)c([N+](=O)[O-])c1
TGI (A498 renal): 40.5 µM
TGI (CAKI-1 renal): 77.6 µM
TGI (HCT-15 colon): 33.6 µM
TGI (M14 melanoma): 46.4 µM
TGI (MOLT-4 leukemia): 61.7 µM
TGI (NCI-H226 lung): 40.7 µM
TGI (RXF 393 renal): 44.8 µM
TGI (SF-268 CNS): > 100 µM
TGI (SK-MEL-2 melanoma): 38.3 µM
TGI (SK-MEL-5 melanoma): 36 µM
TGI (U251 CNS): 29.5 µM

C[C@@H]1CC[C@@H]2[C@@H](C1)O[C@@H]([C@H](C)OCc1ccccc1)SC2(C)C
TGI (A498 renal): 39.3 µM
TGI (CAKI-1 renal): > 100 µM
TGI (HCT-15 colon): 82.7 µM
TGI (M14 melanoma): 47.1 µM
TGI (MOLT-4 leukemia): 34.9 µM
TGI (NCI-H226 lung): 33 µM
TGI (RXF 393 renal): 33.4 µM
TGI (SF-268 CNS): > 100 µM
TGI (SK-MEL-2 melanoma): 33 µM
TGI (SK-MEL-5 melanoma): 33 µM
TGI (U251 CNS): 33.5 µM

O=[N+]([O-])c1ccc(N/N=C/c2ccc(OCCCCCCCCCCCO)cc2)c([N+](=O)[O-])c1
TGI (A498 renal): > 100 µM
TGI (CAKI-1 renal): 8.94 µM
TGI (HCT-15 colon): > 100 µM
TGI (M14 melanoma): 3.22 µM
TGI (MOLT-4 leukemia): > 100 µM
TGI (NCI-H226 lung): 37.3 µM
TGI (RXF 393 renal): 4.6 µM
TGI (SF-268 CNS): 7.62 µM
TGI (SK-MEL-2 melanoma): 56.1 µM
TGI (SK-MEL-5 melanoma): 4.66 µM
TGI (U251 CNS): 10.7 µM

CC[C@H](C)[C@@H]1OC(=O)CCNC(=O)[C@@H](C)NC(=O)C(C)(C)C(=O)[C@H](C)NC(=O)[C@H](Cc2ccc(OC)cc2)N(C)C(=O)[C@H](C(C)C)N(C)C(=O)CNC(=O)[C@H](CC(C)C)N(C)C(=O)CNC1=O (cyclo(G[NMeL]G[NMeV][NMeY](Me)[X32][dA][βAla][Hmpa(2S,3S)]))
TGI (A498 renal): 5.91 µM
TGI (CAKI-1 renal): 6.49 µM
TGI (HCT-15 colon): > 50 µM
TGI (M14 melanoma): 10.2 µM
TGI (MOLT-4 leukemia): > 26.9 µM
TGI (NCI-H226 lung): > 38.2 µM
TGI (RXF 393 renal): 2 µM
TGI (SF-268 CNS): 6.54 µM
TGI (SK-MEL-2 melanoma): 6.48 µM
TGI (SK-MEL-5 melanoma): 0.228 µM
TGI (U251 CNS): 2.62 µM

N#Cc1c(N)nc(Sc2ccccc2N)c(C#N)c1-c1ccc(Cl)cc1
TGI (A498 renal): 16.9 µM
TGI (CAKI-1 renal): 45 µM
TGI (HCT-15 colon): 54.7 µM
TGI (M14 melanoma): 38.5 µM
TGI (MOLT-4 leukemia): > 24.6 µM
TGI (NCI-H226 lung): > 100 µM
TGI (RXF 393 renal): 49.9 µM
TGI (SF-268 CNS): 23.8 µM
TGI (SK-MEL-2 melanoma): 18.2 µM
TGI (SK-MEL-5 melanoma): > 55 µM
TGI (U251 CNS): 24.5 µM

CC(C)(C)OC(=O)N1C(c2cccnc2)=CC[C@H]2C3CC=C(c4cccnc4)[C@@]3(C)CC[C@@H]21 (stereo partly specified)
TGI (A498 renal): 18.5 µM
TGI (CAKI-1 renal): 30.2 µM
TGI (HCT-15 colon): 13.8 µM
TGI (M14 melanoma): 17.7 µM
TGI (MOLT-4 leukemia): > 100 µM
TGI (NCI-H226 lung): 15.1 µM
TGI (RXF 393 renal): 14.6 µM
TGI (SF-268 CNS): 11.5 µM
TGI (SK-MEL-2 melanoma): 8.39 µM
TGI (SK-MEL-5 melanoma): 4.18 µM
TGI (U251 CNS): 12 µM
